In ChEMBL document CHEMBL1201862, “PubChem BioAssay data set” (2004):
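Dose response: 5 concentrations. Exposure: 48 h. Format: 96-well plates. Endpoint: linear interpolation; highest concentration if not reached. GI50 = concentration required for 50% inhibition of growth.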 Active and inactive are the calls of the source. Rule as the data show it: active = GI50 up to about 1.1 µM and inactive = higher.

Tests used:
Experiment in all cases: NCI anticancer screen, dose series, 48 h
[1] = system: DLD-1
[2] = system: DMS-273
[3] = system: HCT-15
[4] = system: HOP-18
[5] = system: LXFL 529
[6] = system: M19-MEL
[7] = system: OVCAR-8
[8] = system: SF-295
[9] = system: SF-539
[10] = system: SK-MEL-28
[11] = system: SK-MEL-2
[12] = system: SNB-19
[13] = system: SNB-78
[14] = system: U-251
[15] = system: UACC-257
[16] = system: XF498
[17] = system: PC-3
[18] = system: BT-549
[19] = system: MCF7
[20] = system: NCI/ADR-RES

c1ccc2c(c1)nnn2CNc1ccc(N2CCOCC2)cc1
GI50 [1]: > 100 µM (inactive)
GI50 [2]: > 100 µM (inactive)
GI50 [3]: > 100 µM
GI50 [4]: > 100 µM (inactive)
GI50 [5]: > 100 µM (inactive)
GI50 [6]: > 100 µM (inactive)
GI50 [7]: > 100 µM (inactive)
GI50 [8]: > 100 µM (inactive)
GI50 [9]: > 100 µM (inactive)
GI50 [10]: > 100 µM (inactive)
GI50 [11]: > 100 µM (inactive)
GI50 [12]: > 100 µM (inactive)
GI50 [13]: > 100 µM (inactive)
GI50 [14]: > 100 µM (inactive)
GI50 [15]: > 100 µM (inactive)
GI50 [16]: > 100 µM (inactive)

CCOC(=O)/C(=C/c1ccc[nH]1)P(=O)(OCC)OCC
GI50 [1]: > 100 µM (inactive)
GI50 [2]: > 100 µM (inactive)
GI50 [4]: > 100 µM (inactive)
GI50 [5]: > 100 µM (inactive)
GI50 [6]: > 100 µM (inactive)
GI50 [7]: > 100 µM (inactive)
GI50 [8]: > 100 µM (inactive)
GI50 [9]: > 100 µM (inactive)
GI50 [10]: > 100 µM (inactive)
GI50 [11]: > 100 µM (inactive)
GI50 [12]: > 100 µM (inactive)
GI50 [13]: > 100 µM (inactive)
GI50 [14]: > 100 µM (inactive)
GI50 [15]: > 100 µM (inactive)
GI50 [16]: > 100 µM (inactive)

O=C1NC2OCC(O)C(O1)C2O (stereo unspecified)
GI50 [1]: > 100 µM (inactive)
GI50 [2]: > 100 µM (inactive)
GI50 [3]: > 100 µM
GI50 [4]: > 100 µM (inactive)
GI50 [5]: > 100 µM (inactive)
GI50 [6]: > 100 µM (inactive)
GI50 [7]: > 100 µM (inactive)
GI50 [8]: > 100 µM (inactive)
GI50 [9]: > 100 µM (inactive)
GI50 [10]: > 100 µM (inactive)
GI50 [11]: > 100 µM (inactive)
GI50 [12]: > 100 µM (inactive)
GI50 [13]: > 100 µM (inactive)
GI50 [14]: > 100 µM (inactive)
GI50 [15]: > 100 µM (inactive)
GI50 [16]: > 100 µM (inactive)

COc1ccc(OC)c(/C=C/NC=O)c1
GI50 [1]: > 100 µM (inactive)
GI50 [2]: > 100 µM (inactive)
GI50 [3]: > 100 µM
GI50 [4]: > 100 µM (inactive)
GI50 [5]: > 100 µM (inactive)
GI50 [6]: > 100 µM (inactive)
GI50 [7]: > 100 µM (inactive)
GI50 [17]: > 100 µM (inactive)
GI50 [8]: > 100 µM (inactive)
GI50 [9]: > 100 µM (inactive)
GI50 [10]: > 100 µM (inactive)
GI50 [11]: > 100 µM (inactive)
GI50 [12]: > 100 µM (inactive)
GI50 [13]: > 100 µM (inactive)
GI50 [14]: > 100 µM (inactive)
GI50 [15]: > 100 µM (inactive)
GI50 [16]: > 100 µM (inactive)

C[C@]12CC[C@H](OC3CCCCO3)CC1=CC[C@@H]1C2CC[C@]2(C)/C(=N/OCCC#N)CCC12 (stereo partly specified)
GI50 [1]: > 100 µM (inactive)
GI50 [2]: 76.7 µM (inactive)
GI50 [3]: > 100 µM
GI50 [4]: > 100 µM (inactive)
GI50 [5]: 17.7 µM (inactive)
GI50 [6]: > 100 µM (inactive)
GI50 [7]: 34.2 µM (inactive)
GI50 [8]: 21.3 µM (inactive)
GI50 [9]: 83.4 µM (inactive)
GI50 [10]: > 100 µM (inactive)
GI50 [11]: 56.2 µM (inactive)
GI50 [12]: 30.7 µM (inactive)
GI50 [13]: 21.9 µM (inactive)
GI50 [14]: 40.4 µM (inactive)
GI50 [15]: 6.62 µM (inactive)
GI50 [16]: 4.62 µM (inactive)

CCCCCCCCCCCC(=O)OCC(C[As](=O)(O)O)OC(=O)CCCCCCCCCCC (stereo unspecified)
GI50 [18]: 7.1 µM (inactive)
GI50 [1]: 15.8 µM (inactive)
GI50 [2]: 2.47 µM (inactive)
GI50 [3]: 8.39 µM
GI50 [4]: 3.93 µM (inactive)
GI50 [5]: 2.06 µM (inactive)
GI50 [6]: 4.25 µM (inactive)
GI50 [19]: 3.93 µM (inactive)
GI50 [20]: 21.3 µM (inactive)
GI50 [7]: 11.7 µM (inactive)
GI50 [17]: 3.18 µM (inactive)
GI50 [8]: 10.4 µM (inactive)
GI50 [9]: 7.89 µM (inactive)
GI50 [10]: 2.96 µM (inactive)
GI50 [11]: 3.92 µM (inactive)
GI50 [12]: 3.28 µM (inactive)
GI50 [13]: 2.82 µM (inactive)
GI50 [14]: 1.54 µM (inactive)
GI50 [15]: 7.52 µM (inactive)
GI50 [16]: 2.9 µM (inactive)

CSC(=N)N1N=C2/C(=C/c3ccccc3)CCC[C@H]2[C@H]1c1ccccc1
GI50 [1]: 3.48 µM (inactive)
GI50 [2]: 2.75 µM (inactive)
GI50 [3]: 6.52 µM
GI50 [4]: 1.07 µM (active)
GI50 [5]: 4.55 µM (inactive)
GI50 [7]: 10.8 µM (inactive)
GI50 [8]: 4.69 µM (inactive)
GI50 [9]: 6.58 µM (inactive)
GI50 [10]: 3.13 µM (inactive)
GI50 [11]: 4.2 µM (inactive)
GI50 [12]: 6.47 µM (inactive)
GI50 [13]: 16 µM (inactive)
GI50 [14]: 12 µM (inactive)
GI50 [15]: 2.37 µM (inactive)
GI50 [16]: 10.8 µM (inactive)

COc1ccc(C2C3C(=O)C=CC(=O)C3[C@@H]2C)cc1OC (stereo partly specified)
GI50 [1]: > 100 µM (inactive)
GI50 [2]: 61.4 µM (inactive)
GI50 [3]: 23.6 µM
GI50 [4]: > 100 µM (inactive)
GI50 [5]: 42.4 µM (inactive)
GI50 [6]: > 100 µM (inactive)
GI50 [7]: > 100 µM (inactive)
GI50 [8]: > 100 µM (inactive)
GI50 [9]: > 100 µM (inactive)
GI50 [10]: > 100 µM (inactive)
GI50 [11]: > 100 µM (inactive)
GI50 [12]: 12.2 µM (inactive)
GI50 [13]: > 100 µM (inactive)
GI50 [14]: > 100 µM (inactive)
GI50 [15]: > 100 µM (inactive)
GI50 [16]: 56.1 µM (inactive)
